The values below are quoted from earlier work in patent publication US10987305B2, “Preparation of respirable zafirlukast particles” (Hovione Scientia Limited, priority 2015, dated 2021).

The structures appear in SMILES notation.

For data set [1] the following is noted: as disclosed in US 5,504,216 and related patents.
The conditions of data set [2]: as disclosed in US 5,504,216 and related patents. This is another data set of the same source.

For the compound `COc1cc(C(=O)NS(=O)(=O)c2ccccc2C)ccc1Cc1cn(C)c2ccc(NC(=O)OC3CCCC3)cc12` [amorphous form, zafirlukast], the Physical stability result in data set [1] is given as “less physically stable”. For the same compound, in data set [2], the Bioavailability result is “most bioavailable”.

As to `COc1cc(C(=O)NS(=O)(=O)c2ccccc2C)ccc1Cc1cn(C)c2ccc(NC(=O)OC3CCCC3)cc12` [crystalline anhydrous form, zafirlukast], the Physical stability result in data set [1] was “physically stable”. In addition, in data set [2], the Bioavailability result was “relatively poor bioavailability”.

With `COc1cc(C(=O)NS(=O)(=O)c2ccccc2C)ccc1Cc1cn(C)c2ccc(NC(=O)OC3CCCC3)cc12` [crystalline monohydrate form, zafirlukast], the Physical stability result in data set [1] was “physically stable”. In data set [2], the Bioavailability entry was “relatively poor bioavailability”.
